According to patent publication US7176226B2, “Crystal modification II of 2-[2-(1-chloro-cyclopropyl)-3-(2-chlorophenyl)-2-hydroxy-propyl]-2,4-dihydro-3H-1,2,4-triazole-3-thione” (Bayer Cropscience AG, priority 2002, dated 2007):

Key:
[1] = particle density of the crystal forms (Ultrapyknometer, or from single crystal X-ray structural analysis); format: physicochemical; settings: for Density, calculated from SCA: calculated from single crystal X-ray structural analysis (SCA); for Density, experimental: method SOP 5024, Ultrapyknometer 1000 T
Protocol: A DSC Pyris 1 from Perkin Elmer was used to determine the melting points. The measurements were carried out using a heating rate of 10 K min^−1. In each case, the given melting points refer to the peak maximum under the given conditions. The Raman spectra of the crystal forms were recorded using an RFS 100/S FT-Raman from Bruker (128 scans per measurement). The particle density was determined experimentally according to method SOP 5024 for determining densities using the Ultrapyknometer 1000 T from Quanta-Chrome or theoretically from the single crystal. X-ray structural analysis (SCA). The single crystal X-ray structural analysis was carried out using a P4RA four-cycle diffractometer from Siemens with rotating anode generator, graphite monochromator, scintillation counter and low-temperature unit. Measurement was carried out using molybdenum radiation of a wavelength of 0.71073 (MoKα).

[2] = thermodynamic stability of the crystal forms; settings: for thermodynamic stability of the crystal form: at room temperature

SMILES	Density, calculated from SCA [1] [Mg/m^3]	Density, experimental [1] [Mg/m^3]	thermodynamic stability of the crystal form [2]	temperature below which the crystal form is stable ([2]; pressure of 1013 mbar)
OC(Cc1ccccc1Cl)(Cn1nc[nH]c1=S)C1(Cl)CC1 (stereo not shown) [form I, 2-[2-(1-chlorocyclopropyl)-3-(2-chlorophenyl)-2-hydroxypropyl]-2,4-dihydro-3H-1,2,4-triazole-3-thione, reference compound]	1.432	1.39	metastable	–
OC(Cc1ccccc1Cl)(Cn1nc[nH]c1=S)C1(Cl)CC1 (stereo not shown) [form II, 2-[2-(1-chlorocyclopropyl)-3-(2-chlorophenyl)-2-hydroxypropyl]-2,4-dihydro-3H-1,2,4-triazole-3-thione]	1.471	1.43	thermodynamically stable	below 90 °C
